# According to patent publication US20110071197A1, “BIS-ARYL COMPOUNDS FOR USE AS MEDICAMENTS” (priority 2008, published 2011):
# Biological target: T1, Recombinant human LTC4 synthase (Homo sapiens, UniProt Q16873)
# T1 construct: made in house; host or cells: Pichia pastoris
# T1 sequence (Q16873 1-150): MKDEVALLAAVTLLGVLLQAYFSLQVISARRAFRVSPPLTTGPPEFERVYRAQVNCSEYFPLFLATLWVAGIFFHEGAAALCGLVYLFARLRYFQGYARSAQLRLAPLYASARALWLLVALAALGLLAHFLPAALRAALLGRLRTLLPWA
# Test: LTC4 synthase in vitro assay (HTRF detection of LTC4)
# Assay type: biochemical
# Details: compound concentration 3 μM; HTRF method
# In short: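 Pichia-expressed recombinant human LTC4 synthase at 0.5 μg/ml total protein in PBS pH 7.4 with 5 mM GSH, preincubated 10 min at RT with inhibitor (10 μM final). LTA4 (2.5 μM final) was then added for 5 min at RT. LTC4 formed was read by HTRF.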
row,inhibition at 3 µM,Compound
1,89%,"CCCCc1ccc(C(=O)Nc2ccc(Oc3ccc(NC(=O)c4ccccc4)cc3)cc2C(=O)O)cc1 [8:8, 5-(4-benzoylaminophenoxy)-2-(4-butylbenzoylamino)benzoic acid]"
2,83%,"Cc1nc(C(F)(F)F)ccc1C(=O)Nc1ccc(Oc2ccc(NC(=O)c3ccc(C(F)(F)F)cc3)c(C(=O)O)c2)cc1 [8:5, 5-[4-((2-methyl-6-(trifluoro-methyl)-pyridine-3-carbonyl)-amino)-phenoxy]-2-(4-(trifluoro-methyl)-benzoylamino)-benzoic acid]"

# Same assay, conditions: total concentration of title compound in the assay 10 μM; HTRF method
Compound,inhibition at 10 µM,% inh.
"CCCCc1ccc(C(=O)Nc2ccc(Oc3ccc(Nc4ccc(F)cc4)cc3)cc2C(=O)O)cc1 [12:2, 5-(4-(4-fluorophenylamino)-phenoxy)-2-(4-butylbenz-amido)benzoic acid]",,94%
"O=C(Nc1ccc(Oc2ccc(NC(=O)c3cccc(Cl)c3)c(C(=O)O)c2)cc1C(=O)O)c1ccccc1 [5:3, 5-[3-carboxy-4-(3-chlorobenzamido)-phenyloxy]-2-benzamidobenzoic acid]",100%,
"CCCCOc1ccc(S(=O)(=O)Nc2ccc(Oc3cccc(C(=O)NS(=O)(=O)c4ccc(F)cc4)c3)cc2C(=O)O)cc1 [20:7, 2-(4-Butoxy-benzenesulfonylamino)-5-[3-(4-fluoro-benzenesulfonylamino-carbonyl)-phenoxy]-benzoic acid]",94%,
"O=C(Nc1cccc(Oc2ccc(NC(=O)c3ccc(C(F)(F)F)cc3F)c(C(=O)O)c2)c1)c1cccc(C(F)(F)F)c1 [10:5, 2-(2-fluoro-4-trifluoromethylbenzoyl-amino)-5-[3-(3-trifluoro-methylbenzoylamino)phenoxy]benzoic acid]",,98%
"O=C(O)c1cc(Oc2ccc(Nc3ccc(Cl)cc3)cc2)ccc1Nc1ccc(Cl)cc1 [12:5, 2-(4-chloro-phenylamino)-5-[4-(4-chloro-phenylamino)-phenoxy]-benzoic acid]",96%,
"CC(C)(C)c1ccc(C(=O)Nc2ccc(Oc3ccc(NC(=O)c4ccccn4)c(C(=O)O)c3)cc2)cc1 [8:18, 5-[4-(4-tert-Butylbenzoyl-amino)phenoxy]-2-[(pyridine-2-carbonyl)-amino]benzoic acid]",99%,
"CCCCc1ccc(C(=O)Nc2ccc(Oc3ccc(NC(=O)c4ccc(Cl)cc4Cl)c(CC(=O)O)c3)cc2)cc1 [17:5, [5-[4-(4-butyl-benzoylamino)-phenoxy]-2-(2,4-dichloro-benzoylamino)-phenyl]-acetic acid]",94%,
"O=C(O)c1cc(Oc2cccc(NCc3cccc(Cl)c3F)c2)ccc1NS(=O)(=O)c1ccc(Cl)cc1Cl [23:5, 5-[3-(3-Chloro-2-fluorobenzylamino)-phenoxy]-2-(2,4-dichlorobenzene-sulfonylamino)benzoic acid]",98%,
"N#Cc1ccc(C(=O)Nc2ccc(Oc3ccc(NC(=O)c4cccc(Cl)c4)c(C(=O)O)c3)cc2C(=O)O)cc1 [2:9, 5-[3-carboxy-4-(4-cyanobenzamido)-phenyloxy]-2-(3-chlorobenzamido)benzoic acid]",99%,
"CCCCc1ccc(S(=O)(=O)N(C)c2ccc(Oc3ccc(NC(=O)c4ccc(OC(C)C)cc4)c(C(=O)O)c3)cc2)cc1 [11:6, 5-{4-[(4-butylbenzene-sulfonyl)-methylamino]phenoxy}-2-(4-isopropoxybenzoylamino)-benzoic acid]",96%,
5-{4-[(4-methoxybenzene-sulfonyl)methylamino]-phenoxy}-2-(4-trifluoromethyl-benzoylamino)benzoic acid [11:3],,98%
"COc1ccc(C(=O)Nc2ccc(Oc3ccc(N(C)C(=O)c4ccc(C(C)(C)C)cc4)cc3)cc2C(=O)O)cc1 [9:2, 5-(4-((N-methyl)-4-tert-butylbenz-amido)phenoxy)-2-(4-methoxybenz-amido)benzoic acid]",,96%
"O=C(Nc1ccc(Oc2cccc(S(=O)(=O)Nc3ccc(F)c(F)c3)c2)cc1C(=O)O)c1ccc(Cl)cc1Cl [19:3, 2-(2,4-Dichloro-benzoylamino)-5-[3-(3,4-difluoro-phenylsufamoyl)-phenoxy]-benzoic acid]",,100%
"CCCCOc1ccc(S(=O)(=O)Nc2ccc(Oc3cccc(NCc4cccc(Cl)c4F)c3)cc2C(=O)O)cc1 [23:4, 2-(4-Butoxybenzenesulfonylamino)-5-[3-(3-chloro-2-fluorobenzylamino)-phenoxy]benzoic acid]",99%,
COc1ccc(S(=O)(=O)N(C)c2ccc(Oc3ccc(NC(=O)c4ccc(Cl)cc4Cl)c(C(=O)O)c3)cc2)cc1 [11:4],,98%
"CCCCc1ccc(C(=O)Nc2ccc(Oc3ccc(NC(=O)c4ccccc4)c(C(=O)O)c3)cc2C(=O)O)cc1 [5:1, 5-[3-carboxy-4-(4-butylbenzamido)-phenyloxy]-2-benzamidobenzoic acid]",100%,
"O=C(O)c1cc(Sc2ccc(NS(=O)(=O)c3ccc(Cl)cc3)cc2)ccc1NS(=O)(=O)c1ccc(Cl)cc1 [14:4, 2-(4-chloro-benzenesulfonyl-amino)-5-[4-(4-chloro-benzenesulfonylamino)-phenylsulfanyl]-benzoic acid]",100%,
"CCCCc1ccc(C(=O)Nc2ccc(Oc3ccc(NC(=O)c4ccc(Cl)cc4Cl)c(C(=O)O)c3)cc2C(=O)O)cc1 [2:5, 5-[3-carboxy-4-(4-chloro-6-chloro-benzamido)-phenyloxy]-2-(4-butylbenz-amido)benzoic acid]",,100%

# More lines, main results first:
inhibition at 10 µM,Compound,% inh.
87%,"O=C(O)c1cc(Oc2ccc(N(c3ccc(C(=O)C4CC4)cc3)c3ccc(C(=O)C4CC4)cc3)cc2)ccc1Nc1ccc(C(=O)C2CC2)cc1 [12:4, 5-{4-[bis-(4-cyclopropane-carbonyl-phenyl)-amino]-phenoxy}-2-(4-cycloprop-anecarbonyl-phenylamino)-benzoic acid]",
94%,"COc1ccc(S(=O)(=O)N(C)c2ccc(Oc3ccc(NC(=O)c4c(F)cccc4F)c(C(=O)O)c3)cc2)cc1 [11:16, 2-(2,6-Difluoro-benzoylamino)-5-{4-[(4-methoxy-benzenesulfonyl)-methyl-amino]-phenoxy}-benzoic acid]",
98%,"CCCCc1ccc(C(=O)Nc2ccc(Oc3ccc(NS(=O)(=O)c4ccc(S(C)(=O)=O)cc4)cc3)cc2C(=O)O)cc1 [11:8, 2-(4-butylbenzoylamino)-5-[4-(4-methanesulfonylbenzene-sulfonylamino)phenoxy]benzoic acid]",
99%,"CCCCc1ccc(C(=O)Nc2ccc([S+]([O-])c3ccc(NC(=O)c4ccc(CCCC)cc4)c(C(=O)O)c3)cc2C(=O)O)cc1 [15:1, 5-(4-(4-butylbenzamido)-3-carboxyphenylsulfinyl)-2-(4-butylbenzamido)benzoic acid]",
98%,"CN(C(=O)c1ccc(C(F)(F)F)cc1)c1ccc(Oc2ccc(NC(=O)c3ccc(Cl)cc3Cl)c(C(=O)O)c2)cc1 [9:5, 5-(4-((N-methyl)-4-trifluoromethyl-benzamido)phenoxy)-2-(2,4-dichloro-benzamido)benzoic acid]",
93%,"O=C(Cc1cccc(Oc2ccc(Nc3ccc(Cl)cc3)c(C(=O)O)c2)c1)NS(=O)(=O)c1ccc(F)c(F)c1 [26:2, 2-(4-Chlorophenylamino)-5-{3-[2-(3,4-difluorobenzenesulfonylamino)-2-oxoethyl]phenoxy}benzoic acid]",
96%,"CN(c1cc(Oc2ccc(NC(=O)c3cccc(Cl)c3)cc2)cc(C(=O)O)c1)c1ccc(F)c(F)c1 [18:6, 3-[4-(3-Chloro-benzoylamino)-phenoxy]-5-[(3,4-difluoro-phenyl)-methyl-amino]-benzoic acid]",
98%,"O=C(O)Cc1cc(Oc2ccc(NC(=O)c3ccc(C(F)(F)F)cc3F)c(C(=O)O)c2)ccc1NC(=O)c1cc(Cl)ccc1O [6:2, 5-[3-carboxymethyl-4-(5-chloro-2-hydroxybenzoylamino)-phenoxy]-2-(2-fluoro-4-trifluoromethyl-benzoylamino)benzoic acid]",
99%,"CCCCc1ccc(S(=O)(=O)Nc2ccc(Oc3ccc(NC(=O)c4ccc(C(F)(F)F)cc4)c(C(=O)O)c3)cc2)cc1 [Example 11:1, 5-[4-(4-butylbenzene-sulfonylamino)phenoxy]-2-(4-trifluoromethylbenzoylamino)-benzoic acid]",
100%,"COc1ccc(S(=O)(=O)N(C)c2ccc(Oc3ccc(NC(=O)c4cccc(Cl)c4)c(C(=O)O)c3)cc2)cc1 [11:14, 2-(3-Chloro-benzoylamino)-5-{4-[(4-methoxy-benzenesulfonyl)-methyl-amino]-phenoxy}-benzoic acid]",
98%,"CC(C)Oc1ccc(C(=O)Nc2ccc(Oc3ccc(NC(=O)c4ccc(Cl)cc4Cl)c(CC(=O)O)c3)cc2C(=O)O)cc1 [6:6, 5-[3-carboxymethyl-4-(2,4-dichloro-benzoyl-amino)phenoxy]-2-(4-isopropoxybenzoyl-amino)benzoic acid]",
94%,"O=C(Nc1ccc(Oc2cccc(Oc3ccc(F)c(F)c3)c2)cc1C(=O)O)c1ccc(OC2CCCC2)cc1 [Example 28:2, 2-(4-Cyclopentyloxybenzoylamino)-5-[3-(3,4-difluorophenoxy)phenoxy]benzoic acid]",
97%,"O=C(O)c1cc(Nc2ccc(F)c(F)c2)cc(Oc2ccc(Nc3ccc(Cl)cc3)cc2)c1 [18:2, 3-[4-(4-Chloro-phenylamino)-phenoxy]-5-(3,4-difluoro-phenylamino)-benzoic acid]",
88%,"CCCCc1ccc(C(=O)Nc2cccc(Oc3ccc(NC(=O)c4ccc(OC(F)(F)F)cc4)c(C(=O)O)c3)c2)cc1 [10:2, 5-[(3-(4(1-butyl)benzoylamino)-phenoxy)]-2-(4-trifluoromethoxy-benzoylamino)benzoic acid]",
99%,"O=C(O)c1cc(Sc2ccc(Nc3ccc(F)c(F)c3)cc2)ccc1Nc1ccc(F)c(F)c1 [Example 14:2, 2-(3,4-difluorophenylamino)-5-[4-(3,4-difluoro-phenylamino)-phenylsulfanyl]-benzoic acid]",
